The source of these data is ChEMBL document CHEMBL4007384, “Synthesis and optimization of furano[3,2-d]pyrimidines as selective spleen tyrosine kinase (Syk) inhibitors” (Bioorg Med Chem Lett, 2016).

Data set [1] is described as follows: Solubility in pH 5 FeSSIF at 0.2 mg sonicated for 10 mins followed by incubation for 2 days by HPLC analysis. In kind it is physicochemical.
For data set [2], the target named is T1, CYP3A4 (Homo sapiens, UniProt P08684). Kind of data set: Inhibition of CYP3A4 in human liver microsomes assessed as residual activity at 10 uM measured immediately relative to control. Particulars: read-out: Activity; call rule not given here. The format is ADME. Background: Liver microsomes are a subcellular fraction often used to study metabolism.
T1 sequence (P08684 whole entry): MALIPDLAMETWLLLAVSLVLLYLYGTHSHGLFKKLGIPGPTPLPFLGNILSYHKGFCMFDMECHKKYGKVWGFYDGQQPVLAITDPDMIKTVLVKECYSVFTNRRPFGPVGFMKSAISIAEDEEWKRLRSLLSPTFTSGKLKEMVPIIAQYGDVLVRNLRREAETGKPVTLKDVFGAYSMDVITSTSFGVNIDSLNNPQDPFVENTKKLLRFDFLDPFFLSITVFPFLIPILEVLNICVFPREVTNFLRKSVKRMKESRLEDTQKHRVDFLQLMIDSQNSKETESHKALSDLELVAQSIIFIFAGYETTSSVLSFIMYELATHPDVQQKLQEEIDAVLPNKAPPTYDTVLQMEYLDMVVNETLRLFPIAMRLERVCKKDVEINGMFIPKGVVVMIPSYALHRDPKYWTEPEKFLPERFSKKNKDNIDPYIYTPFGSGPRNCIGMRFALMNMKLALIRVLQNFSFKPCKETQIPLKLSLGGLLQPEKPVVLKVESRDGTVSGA
In data set [3] the target is T1, CYP3A4. Kind of data set: Inhibition of CYP3A4 in human liver microsomes assessed as residual activity at 50 uM measured after 30 mins relative to control. The format is ADME. Particulars: read-out: Activity.
Data set [4] deals with T1, CYP3A4. Kind of data set: Inhibition of CYP3A4 in human liver microsomes assessed as residual activity at 10 uM measured after 30 mins relative to control. Particulars: read-out: Activity. The format is ADME.
Data set [5] is described as follows: Unbound clearance in human microsomes. In kind it is ADME, Microsome.
The target of data set [6] is T1, CYP3A4. Briefly: Inhibition of CYP3A4 in human liver microsomes assessed as residual activity at 50 uM measured immediately relative to control. The format is ADME. Particulars: read-out: Activity.
The nature of data set [7]: Unbound clearance in rat microsomes. In kind it is ADME, Microsome.
A further data set has as its target Cytochrome P450 3A4 (Homo sapiens, UniProt P08684). Briefly: Time-dependent inhibition of CYP3A4 in human liver microsomes at 10 to 50 uM. The format is ADME.
Data set [8] deals with Rho-associated protein kinase 2 (Homo sapiens, UniProt O75116). Kind of data set: Inhibition of ROCK2 (unknown origin) after 60 mins by TR-FRET assay. In general terms: In TR-FRET formats the signal depends on donor and acceptor labels being close together.
Rho-associated protein kinase 2, sequence (O75116 whole entry): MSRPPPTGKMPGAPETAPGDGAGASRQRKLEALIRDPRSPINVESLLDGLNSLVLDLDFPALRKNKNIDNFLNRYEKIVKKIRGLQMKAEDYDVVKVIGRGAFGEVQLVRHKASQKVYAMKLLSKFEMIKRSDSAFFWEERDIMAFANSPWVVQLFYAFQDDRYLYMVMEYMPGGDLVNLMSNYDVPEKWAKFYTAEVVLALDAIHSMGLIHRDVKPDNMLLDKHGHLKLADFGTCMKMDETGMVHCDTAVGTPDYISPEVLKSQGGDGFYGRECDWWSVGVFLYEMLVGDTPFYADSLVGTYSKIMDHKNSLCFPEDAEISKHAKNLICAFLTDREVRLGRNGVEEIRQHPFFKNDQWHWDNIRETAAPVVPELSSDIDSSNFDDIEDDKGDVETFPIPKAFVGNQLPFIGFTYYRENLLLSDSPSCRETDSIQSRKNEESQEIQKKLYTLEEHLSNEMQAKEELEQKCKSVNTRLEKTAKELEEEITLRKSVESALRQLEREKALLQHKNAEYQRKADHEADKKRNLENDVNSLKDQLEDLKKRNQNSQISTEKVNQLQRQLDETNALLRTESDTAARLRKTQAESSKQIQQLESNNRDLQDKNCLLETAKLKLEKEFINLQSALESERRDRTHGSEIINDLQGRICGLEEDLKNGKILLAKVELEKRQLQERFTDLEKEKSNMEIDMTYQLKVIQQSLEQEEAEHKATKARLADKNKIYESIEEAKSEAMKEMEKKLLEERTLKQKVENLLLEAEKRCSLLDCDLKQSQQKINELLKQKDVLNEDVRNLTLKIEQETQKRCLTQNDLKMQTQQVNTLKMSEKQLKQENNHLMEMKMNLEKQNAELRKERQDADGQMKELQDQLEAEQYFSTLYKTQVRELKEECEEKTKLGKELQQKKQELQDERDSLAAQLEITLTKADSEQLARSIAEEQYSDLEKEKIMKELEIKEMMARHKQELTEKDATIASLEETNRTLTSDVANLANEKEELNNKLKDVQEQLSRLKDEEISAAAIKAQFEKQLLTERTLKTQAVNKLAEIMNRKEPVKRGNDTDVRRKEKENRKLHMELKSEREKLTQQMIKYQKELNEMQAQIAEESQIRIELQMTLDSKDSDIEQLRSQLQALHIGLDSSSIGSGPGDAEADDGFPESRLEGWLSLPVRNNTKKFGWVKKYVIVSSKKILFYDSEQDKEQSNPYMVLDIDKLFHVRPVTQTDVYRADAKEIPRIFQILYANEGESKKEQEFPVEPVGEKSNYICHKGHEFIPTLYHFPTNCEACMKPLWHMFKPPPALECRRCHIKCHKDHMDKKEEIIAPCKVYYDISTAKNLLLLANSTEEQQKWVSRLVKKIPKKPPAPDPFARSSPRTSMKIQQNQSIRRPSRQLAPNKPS
The target in data set [9] is T2, Serine/threonine-protein kinase TAO2 (Homo sapiens, UniProt Q9UL54).
T2 sequence (Q9UL54 whole entry): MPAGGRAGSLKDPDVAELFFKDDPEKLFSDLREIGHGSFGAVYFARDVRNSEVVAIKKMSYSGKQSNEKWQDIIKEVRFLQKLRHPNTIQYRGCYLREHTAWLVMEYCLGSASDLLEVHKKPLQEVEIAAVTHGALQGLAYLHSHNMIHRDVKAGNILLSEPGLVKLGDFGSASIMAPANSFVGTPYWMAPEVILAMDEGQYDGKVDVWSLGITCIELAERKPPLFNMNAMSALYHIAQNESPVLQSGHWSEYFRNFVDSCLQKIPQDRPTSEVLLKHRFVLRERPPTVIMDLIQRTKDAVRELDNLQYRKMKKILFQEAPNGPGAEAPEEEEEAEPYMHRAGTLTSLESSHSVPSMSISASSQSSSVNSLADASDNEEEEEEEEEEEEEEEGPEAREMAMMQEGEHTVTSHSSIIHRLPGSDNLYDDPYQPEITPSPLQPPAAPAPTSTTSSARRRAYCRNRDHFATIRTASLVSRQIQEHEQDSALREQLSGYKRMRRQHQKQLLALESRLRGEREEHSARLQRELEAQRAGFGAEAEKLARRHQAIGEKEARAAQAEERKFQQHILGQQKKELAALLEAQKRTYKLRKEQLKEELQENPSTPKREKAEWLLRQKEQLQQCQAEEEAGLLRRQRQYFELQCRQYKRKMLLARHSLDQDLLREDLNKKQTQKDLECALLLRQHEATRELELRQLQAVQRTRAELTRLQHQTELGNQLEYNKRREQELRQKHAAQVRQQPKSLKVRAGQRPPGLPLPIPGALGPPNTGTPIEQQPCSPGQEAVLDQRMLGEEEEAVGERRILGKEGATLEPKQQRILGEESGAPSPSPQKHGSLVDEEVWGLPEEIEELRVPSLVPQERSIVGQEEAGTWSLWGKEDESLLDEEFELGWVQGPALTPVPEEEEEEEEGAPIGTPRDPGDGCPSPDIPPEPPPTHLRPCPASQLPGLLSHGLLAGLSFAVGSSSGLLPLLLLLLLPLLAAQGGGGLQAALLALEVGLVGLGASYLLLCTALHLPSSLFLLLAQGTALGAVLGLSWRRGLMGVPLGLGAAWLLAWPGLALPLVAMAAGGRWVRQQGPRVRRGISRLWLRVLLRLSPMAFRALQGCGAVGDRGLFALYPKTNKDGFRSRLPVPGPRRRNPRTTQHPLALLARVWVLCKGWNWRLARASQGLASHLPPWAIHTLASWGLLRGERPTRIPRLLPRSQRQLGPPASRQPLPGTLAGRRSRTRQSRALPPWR
Kind of data set: Inhibition of TAOK2 (unknown origin) after 60 mins by TR-FRET assay.

Data set [10] can be described thus: Inhibition of CDK11 (unknown origin) after 60 mins by TR-FRET assay. Also noted: species or system Homo sapiens.
The target of data set [11] is Serine/threonine-protein kinase B-raf (Homo sapiens, UniProt P15056). Briefly: Inhibition of BRAF (unknown origin) after 60 mins by TR-FRET assay.
Serine/threonine-protein kinase B-raf, sequence (P15056 whole entry): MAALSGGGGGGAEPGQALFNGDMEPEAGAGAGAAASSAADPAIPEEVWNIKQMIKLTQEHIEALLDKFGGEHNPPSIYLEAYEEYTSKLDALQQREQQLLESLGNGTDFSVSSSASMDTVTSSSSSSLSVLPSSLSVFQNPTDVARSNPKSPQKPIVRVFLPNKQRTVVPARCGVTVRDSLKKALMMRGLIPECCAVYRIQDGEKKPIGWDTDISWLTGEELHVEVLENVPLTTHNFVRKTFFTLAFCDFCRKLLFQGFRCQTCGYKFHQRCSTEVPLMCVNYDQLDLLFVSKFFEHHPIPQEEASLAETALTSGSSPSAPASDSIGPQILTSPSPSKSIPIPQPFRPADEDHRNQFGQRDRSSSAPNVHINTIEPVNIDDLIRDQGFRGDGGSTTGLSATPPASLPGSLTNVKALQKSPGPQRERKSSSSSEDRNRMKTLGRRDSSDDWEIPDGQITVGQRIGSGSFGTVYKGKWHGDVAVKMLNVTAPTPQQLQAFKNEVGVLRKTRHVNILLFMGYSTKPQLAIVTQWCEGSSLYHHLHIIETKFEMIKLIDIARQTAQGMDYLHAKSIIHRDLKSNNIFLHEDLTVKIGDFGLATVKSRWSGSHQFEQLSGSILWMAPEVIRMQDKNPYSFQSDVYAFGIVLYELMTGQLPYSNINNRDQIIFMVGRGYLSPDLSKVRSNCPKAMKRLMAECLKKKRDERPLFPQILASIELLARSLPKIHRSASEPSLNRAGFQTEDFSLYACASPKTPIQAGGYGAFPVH
Data set [12] concerns the target T3, Dual specificity protein kinase TTK (Homo sapiens, UniProt P33981).
T3 sequence (P33981 whole entry): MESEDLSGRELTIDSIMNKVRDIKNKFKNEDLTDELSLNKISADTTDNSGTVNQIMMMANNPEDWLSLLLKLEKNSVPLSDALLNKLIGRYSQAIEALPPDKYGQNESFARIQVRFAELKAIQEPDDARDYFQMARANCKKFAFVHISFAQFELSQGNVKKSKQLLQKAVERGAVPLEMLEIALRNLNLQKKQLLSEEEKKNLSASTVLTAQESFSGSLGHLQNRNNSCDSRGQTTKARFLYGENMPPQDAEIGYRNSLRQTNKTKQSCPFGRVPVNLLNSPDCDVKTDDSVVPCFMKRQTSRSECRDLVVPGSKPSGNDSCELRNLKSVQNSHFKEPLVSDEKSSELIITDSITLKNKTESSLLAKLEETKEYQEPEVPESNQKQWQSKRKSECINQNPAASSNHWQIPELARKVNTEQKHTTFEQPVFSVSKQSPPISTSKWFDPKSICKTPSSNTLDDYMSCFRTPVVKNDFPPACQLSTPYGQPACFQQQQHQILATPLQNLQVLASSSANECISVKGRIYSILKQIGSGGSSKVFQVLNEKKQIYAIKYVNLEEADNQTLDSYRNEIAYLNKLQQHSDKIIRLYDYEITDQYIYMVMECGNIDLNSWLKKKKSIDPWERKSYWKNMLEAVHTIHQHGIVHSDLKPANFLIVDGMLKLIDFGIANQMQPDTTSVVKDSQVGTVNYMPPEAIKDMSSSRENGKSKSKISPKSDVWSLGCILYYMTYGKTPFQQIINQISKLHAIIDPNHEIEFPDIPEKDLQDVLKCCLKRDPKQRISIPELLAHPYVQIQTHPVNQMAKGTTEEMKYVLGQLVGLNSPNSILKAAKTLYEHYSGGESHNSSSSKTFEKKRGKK
Briefly: Inhibition of TTK (unknown origin) after 60 mins by TR-FRET assay.

For data set [13], the target named is T4, Tyrosine-protein kinase SYK (Homo sapiens, UniProt P43405).
Description: Inhibition of C-terminal His-tagged Syk catalytic domain (356 to 635 residues) (unknown origin) using biotin-TYR1 as substrate after 60 mins by TR-FRET assay
Data set [14] concerns the target T5, Serine/threonine-protein kinase Nek2 (Homo sapiens, UniProt P51955).
T5 sequence (P51955 whole entry): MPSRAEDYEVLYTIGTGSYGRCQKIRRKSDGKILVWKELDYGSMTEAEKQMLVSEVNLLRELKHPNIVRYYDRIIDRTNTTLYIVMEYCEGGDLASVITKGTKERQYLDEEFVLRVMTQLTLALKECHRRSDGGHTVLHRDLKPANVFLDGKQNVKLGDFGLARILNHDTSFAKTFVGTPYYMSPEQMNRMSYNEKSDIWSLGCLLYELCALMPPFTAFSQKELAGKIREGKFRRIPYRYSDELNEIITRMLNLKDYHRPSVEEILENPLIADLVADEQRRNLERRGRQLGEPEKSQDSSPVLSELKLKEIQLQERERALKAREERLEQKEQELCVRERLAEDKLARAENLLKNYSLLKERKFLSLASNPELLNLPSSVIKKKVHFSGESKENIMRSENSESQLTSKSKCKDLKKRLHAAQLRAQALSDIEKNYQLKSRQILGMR
Briefly: Inhibition of NEK2 (unknown origin) after 60 mins by TR-FRET assay.

Data set [15] deals with T4, Tyrosine-protein kinase SYK. The source holds these as a separate data set.
Description: Inhibition of Syk (unknown origin) after 60 mins by TR-FRET assay
For data set [16], the target named is cGMP-dependent protein kinase 1 (Homo sapiens, UniProt Q13976). Kind of data set: Inhibition of PKG1A (unknown origin) after 60 mins by TR-FRET assay.
cGMP-dependent protein kinase 1, sequence (Q13976 whole entry): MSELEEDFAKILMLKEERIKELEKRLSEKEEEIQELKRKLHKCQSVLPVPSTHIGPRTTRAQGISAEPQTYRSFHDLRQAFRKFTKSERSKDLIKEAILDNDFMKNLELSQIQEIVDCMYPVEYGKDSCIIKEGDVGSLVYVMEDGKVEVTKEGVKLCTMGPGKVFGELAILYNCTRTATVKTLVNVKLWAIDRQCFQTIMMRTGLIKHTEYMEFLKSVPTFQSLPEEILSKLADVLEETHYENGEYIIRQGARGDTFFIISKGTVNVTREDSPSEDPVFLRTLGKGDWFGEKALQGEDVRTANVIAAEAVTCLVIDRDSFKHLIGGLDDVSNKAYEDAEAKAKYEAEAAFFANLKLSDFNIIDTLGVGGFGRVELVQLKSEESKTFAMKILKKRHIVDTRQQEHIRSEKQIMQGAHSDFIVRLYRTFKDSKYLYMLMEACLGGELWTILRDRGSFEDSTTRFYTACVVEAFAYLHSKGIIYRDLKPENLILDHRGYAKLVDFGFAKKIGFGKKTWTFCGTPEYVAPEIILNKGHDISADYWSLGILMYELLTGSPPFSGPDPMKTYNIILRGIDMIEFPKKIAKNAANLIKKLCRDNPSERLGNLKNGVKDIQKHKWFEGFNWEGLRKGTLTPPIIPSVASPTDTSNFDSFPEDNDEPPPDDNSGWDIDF

Molecules are shown by their SMILES. Values after ≈ are worked out from the molar mass of the structure shown.

Cytochrome P450 3A4, sequence (P08684 whole entry): as the sequence (P08684 whole entry) above

In turn, `CC1(C)OCC(=O)Nc2cc(Nc3nc(NC4CC4)c4occc4n3)ccc21` registered a solubility at 48 h in data set [1] of 158 µM (≈ 59.9 µg/mL). On CYP3A4 [2], the activity at 0 min, 10 µM was determined as 97%. For the same compound, the activity at 0.5 h, 50 µM on CYP3A4 [3] stood at 14%. Also, the activity at 0.5 h, 10 µM at CYP3A4 [4] came out at 56%. The values for the CL free in data set [5] and in data set [7] were 120 mL/min/kg and 200 mL/min/kg, respectively. Further, the activity at 0 min, 50 µM at CYP3A4 [6] came to 80%. The TDI result on Cytochrome P450 3A4 is listed as “Active”.

Consider `CC(C)CNc1nc(Nc2ccc3c(c2)NC(=O)COC3(C)C)nc2ccoc12`, for which the CL free in [5] came out at 507 mL/min/kg; in [7], 1080 mL/min/kg.

`CC1(C)Oc2ccc(Nc3nc(NCC(F)(F)F)c4occc4n3)cc2NC1=O`: in data set [7], the CL free is 177 mL/min/kg.

The compound `COC(=O)N[C@@H]1CC(C)(C)c2ccc(Nc3nc(NC4CC4)c4occc4n3)cc2NC1=O` registered a solubility at 48 h in data set [1] of 27 µM (≈ 12.2 µg/mL). Besides, the CL free in data set [5] is 123 mL/min/kg; in [7] it was 182 mL/min/kg.

For the compound `CCCNC(=O)c1ccc(Nc2nc(NCC(F)(F)F)c3cc[nH]c3n2)cc1`, the IC50 is 248 nM in data set [8]; 529 nM in data set [9]; greater than 10000 nM in data set [10]; greater than 10000 nM in data set [11]; 991 nM in data set [12]; 17 nM in data set [13]. Further, the IC50 is greater than 10000 nM in data set [14], 8 nM in data set [15] and greater than 10000 nM in data set [16].

Regarding `CC1(C)CCC(=O)Nc2cc(Nc3nc(NC4CC4)c4occc4n3)ccc21`, the CL free came out at 317 mL/min/kg in [5] and 397 mL/min/kg in data set [7].

What is called solubility is the concentration that dissolves in the medium under given conditions. A lower solubility goes with little dissolved substance. For orientation: IC50 means the concentration that gives 50% inhibition. Higher therefore signals lower potency.
